# Patent US20100197591A1, “4-AMINO-7,8-DIHYDROPYRIDO[4,3-d]PYRIMIDIN-5(6H)-ONE DERIVATIVES” (pfizer Inc, priority 2009, published 2010)
# Biological target: T1, Human full-length diacylglycerol:acylCoA acyltransferase 1 (DGAT-1) (Homo sapiens, UniProt O75907)
# T1 construct: Human full-length diacylglycerol:acylCoA acyltransferase 1 (DGAT-1) was expressed in Sf9 insect cells; made in house; host or cells: Sf9 insect cells (baculovirus); crude membrane/microsome fraction
# T1 sequence (O75907 1-488): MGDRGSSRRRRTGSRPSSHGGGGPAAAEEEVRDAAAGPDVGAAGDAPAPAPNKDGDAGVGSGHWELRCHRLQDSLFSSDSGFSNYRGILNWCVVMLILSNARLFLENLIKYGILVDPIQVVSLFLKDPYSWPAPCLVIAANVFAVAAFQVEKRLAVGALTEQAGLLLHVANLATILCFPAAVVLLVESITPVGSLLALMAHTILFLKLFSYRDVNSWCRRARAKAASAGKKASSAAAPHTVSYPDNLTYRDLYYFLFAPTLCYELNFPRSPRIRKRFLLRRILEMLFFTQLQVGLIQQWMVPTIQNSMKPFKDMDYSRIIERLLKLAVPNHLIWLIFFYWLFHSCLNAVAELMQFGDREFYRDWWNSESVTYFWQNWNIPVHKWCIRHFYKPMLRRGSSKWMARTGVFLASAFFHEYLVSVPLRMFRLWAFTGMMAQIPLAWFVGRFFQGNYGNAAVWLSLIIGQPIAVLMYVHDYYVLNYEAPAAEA
# Experiment: DGAT-1 Reduced Microsome Multidose Assay, G7829E Human IC50
# Type: biochemical
# Conditions: crude membrane fraction of Sf9 cells expressing human DGAT-1; [14C]decanoylCoA; terminated with 5 μl of 1.4% phosphoric acid instead of HCl; average where tested more than once
# Method: (§1) Human full-length diacylglycerol:acylCoA acyltransferase 1 (DGAT-1) was expressed in Sf9 insect cells which are then lysed and a crude membrane fraction (105,000×g pellet) was prepared. The DGAT-1 gene is a human DGAT-1 gene described in J Biol Chem 273:26765 (1998) and U.S. Pat. No. 6,100,077.
# (§2) In vitro inhibition of DGAT-1 was measured using a modification, further described below, of the assay methodology described in U.S. Pat. No. 6,994,956 B2.
# (§3) The cells were cultured as follows. Sf9 cells (20 L) were infected with 4 mL of DGAT-1 Baculovirus Infected Insect Cells (BIIC) for 72 hours in a Wave Bioreactor System 20/50P (Wave Biotec/GE Healthcare).
# (§4) Crude DGAT-1 microsomes were prepared as follows. Cell pellets were washed once with ice-cold Dulbecco's phosphate-buffered saline. Cells were collected in tabletop centrifuge (Beckman GS-6KR), 15 minutes, 2000×g, 4° C. Twenty (20) mL of ice-cold Microsome Buffer (MB) was added per 5 g of cell pellet. The suspension was passed through a microfluidizer 3 times (18K psi). The lysate was transferred to centrifuge tubes and centrifuged for 20 minutes at 5000×g (Beckman-Coulter, Inc. Allegra® 64R High-Speed Refrigerated Benchtop Centrifuge, F0650 rotor) at 4° C. The supernatant was transferred to ultracentrifuge tubes and centrifuged at 125,000×g for 1 hour in a Beckman Ti-45 rotor, 4° C. The supernatant fluid was discarded. The pellet was resuspended in 70 mL of MB by sonication. The microsome concentration was determined using Bio-Rad Protein DC Protein Assay. The microsomes were filter sterilized with a 0.22 μm filter. The samples were portioned, flash frozen and stored at −80° C.
# (§5) The Microsome Buffer, used for microsome preparation, was prepared by conventional means and contained 125 mM sucrose, 3 mM imidazole, 0.2 μg/mL aprotinin, 0.2 μg/mL leupeptin and 5 mM dithiothreitol (Cleland's reagent), DGAT-1 activity was measured in 384-well format in a total assay volume of 25 μl that contained, Hepes buffer (50 mM, pH 7.5), MgCl2 (10 mM), bovine serum albumin (0.6 mg/ml), [^14C]decanoylCoA (20 μM, 58 Ci/mol) and membranes (25 μg/ml) into which 1,2 dioleoyl-sn-glycerol (75 μM) in acetone has already been incorporated. Inhibitors in DMSO were pre-incubated with membranes before initiating the DGAT-1 reaction by the addition of decanoylCoA. […] The DMSO concentration was 2.5%. The inhibitors were present at a range of eight concentrations to generate an apparent IC50 for each compound. The eight inhibitor concentration employed ranged from 10 μM to 3 nM (from high to low concentration). Specifically, the eight concentrations used were 10 μM, 3 μM, 1 μM, 300 nM, 100 nM, 30 nM, 10 nM and 3 nM.
# (§6) Reaction mixtures were neutralized by the addition of 15 μl of tris(hydroxy-methyl)aminomethane (1M, pH 8.0) and then mixed by trituration with 37.5 μl of Microscint™-E (Perkin Elmer). Plates contents were allowed to partition for 15 to 30 min before ^14C was measured in a scintillation spectrometer (Wallac Microbeta Trilux 1450-030 liquid scintillation counter 12 detector in the top-count DPM mode). Percent inhibition of test compounds was computed as […].
# (§7) Four separate assays were performed using 4 different methods of analysis. The method of analysis of Assay 1 was the same as Assay 4 (described above) except microsomes were utilized at 25 μg/mL instead of 5 μg/mL. The method of analysis of Assay 2 was the same as Assay 4 (described above) except eleven (11) concentrations of inhibitor were employed instead of eight (8). The method of analysis of Assay 3 was the same as Assay 2 except the compounds were serially diluted in a different laboratory.
# (§8) Where this DGAT-1 inhibition assay was performed on a compound more than once, an average is provided for that compound.
row,Structure (SMILES),IC50
1,"COc1nc(N)c2c(n1)CCN(c1ccc(C3(C(N)=O)CCC3)cc1)C2=O [Example 5A, 1-[4-(4-amino-2-methoxy-5-oxo-7,8-dihydropyrido[4,3-d]pyrimidin-6(5H)-yl)phenyl]cyclobutanecarboxamide]",78.6 nM
2,"COc1nc(N)c2c(n1)CCN(c1ccc(C3(C#N)CCC3)cc1)C2=O [Example 4A, 1-[4-(4-amino-2-methoxy-5-oxo-7,8-dihydropyrido[4,3-d]pyrimidin-6(5H)-yl)phenyl]cyclobutanecarbonitrile]",20.7 nM
3,"COc1nc(N)c2c(n1)CCN(c1ccc(CC(C)(C)O)cc1)C2=O [Example 1S, 4-amino-6-[4-(2-hydroxy-2-methylpropyl)phenyl]-2-methoxy-7,8-dihydropyrido[4,3-d]pyrimidin-5(6H)-one]",44.3 nM
4,"CCC(O)(CC)c1ccc(N2CCc3nc(OC)nc(N)c3C2=O)cc1 [Example 1W, 4-amino-6-[4-(1-ethyl-1-hydroxypropyl)phenyl]-2-methoxy-7,8-dihydropyrido[4,3-d]pyrimidin-5(6H)-one]",34 nM
5,"COc1nc(N)c2c(n1)CCN(c1ccc(C(C)(C)CNC(=O)OC(C)(C)C)cc1)C2=O [Example 3T, tert-butyl {2-[4-(4-amino-2-methoxy-5-oxo-7,8-dihydropyrido[4,3-d]pyrimidin-6(5H)-yl)phenyl]-2-methylpropyl}carbamate]",19.6 nM
6,"COc1nc(N)c2c(n1)CCN(c1ccc3c(c1)CC(C)(C)O3)C2=O [Example 9M, 4-amino-6-(2,2-dimethyl-2,3-dihydro-1-benzofuran-5-yl)-2-methoxy-7,8-dihydropyrido[4,3-d]pyrimidin-5(6H)-one]",1380 nM
7,"COc1nc(N)c2c(n1)CCN(c1ccc(C(C)(C)c3cc[nH]n3)cc1)C2=O [Example 1N, 4-amino-2-methoxy-6-{4-[1-methyl-1-(1H-pyrazol-3-yl)ethyl]phenyl}-7,8-dihydropyrido[4,3-d]pyrimidin-5(6H)-one]",31.9 nM
8,"COc1nc(N)c2c(n1)CCN(c1ccc(C(C)(C)c3nnnn3C)cc1)C2=O [Example 3Q, 4-amino-2-methoxy-6-{4-[1-methyl-1-(1-methyl-1H-tetrazol-5-yl)ethyl]phenyl}-7,8-dihydropyrido[4,3-d]pyrimidin-5(6H)-one]",95.3 nM
9,"COc1nc(N)c2c(n1)CCN(c1ccc(C(=O)C(C)(C)C)cc1)C2=O [Example 1F, 4-amino-6-[4-(2,2-dimethylpropanoyl)phenyl]-2-methoxy-7,8-dihydropyrido[4,3-d]pyrimidin-5(6H)-one]",192 nM
10,"COc1nc(N)c2c(n1)CCN(c1ccc(C(C)(C)c3nnn(C)n3)cc1)C2=O [Example 3R, 4-amino-2-methoxy-6-{4-[1-methyl-1-(2-methyl-2H-tetrazol-5-yl)ethyl]phenyl}-7,8-dihydropyrido[4,3-d]pyrimidin-5(6H)-one]",21.1 nM
11,"COc1nc(N)c2c(n1)CCN(c1cccc(C(C)(C)CO)c1)C2=O [Example 1K, 4-amino-6-[3-(2-hydroxy-1,1-dimethylethyl)phenyl]-2-methoxy-7,8-dihydropyrido[4,3-d]pyrimidin-5(6H)-one]",831 nM
12,"COc1nc(N)c2c(n1)CCN(c1ccc(C3(C(N)=O)CCCC3)cc1)C2=O [Example 5C, 1-[4-(4-amino-2-methoxy-5-oxo-7,8-dihydropyrido[4,3-d]pyrimidin-6(5H)-yl)phenyl]cyclopentanecarboxamide]",217 nM
13,"COc1nc(N)c2c(n1)CCN(c1ccc(C(C)(C)c3ncco3)cc1)C2=O [Example 1L, 4-amino-2-methoxy-6-{4-[1-methyl-1-(1,3-oxazol-2-yl)ethyl]phenyl}-7,8-dihydropyrido[4,3-d]pyrimidin-5(6H)-one]",34.8 nM

# Biological target: T1, Human full-length diacylglycerol:acylCoA acyltransferase 1 (DGAT-1)
# Experiment: DGAT-1 Reduced Microsome Multidose Assay, G7329F Human IC50
# Type: biochemical
# Conditions: crude membrane fraction of Sf9 cells expressing human DGAT-1; [14C]decanoylCoA; apparent IC50, average where tested more than once
# Method: as §1, §2, §3, §4, §5, §6, §7, §8
row,Structure (SMILES),IC50
1,"COc1nc(N)c2c(n1)CCN(c1ccc(Cl)c(F)c1)C2=O [Example 9D, 4-amino-6-(4-chloro-3-fluorophenyl)-2-methoxy-7,8-dihydropyrido[4,3-d]pyrimidin-5(6H)-one]",101 nM
2,"COc1nc(N)c2c(n1)CCN(c1ccc(C(C)(C)c3ncnn3C)cc1)C2=O [Example 3K, 4-amino-2-methoxy-6-{4-[1-methyl-1-(1-methyl-1H-1,2,4-triazol-5-yl)ethyl]phenyl}-7,8-dihydropyrido[4,3-d]pyrimidin-5(6H)-one]",795 nM
3,"COc1nc(N)c2c(n1)CCN(c1ccc(C(C)(C)c3nc(C)no3)cc1)C2=O [Example 3F, 4-amino-2-methoxy-6-{4-[1-methyl-1-(3-methyl-1,2,4-oxadiazol-5-yl)ethyl]phenyl}-7,8-dihydropyrido[4,3-d]pyrimidin-5(6H)-one]",51.5 nM
4,"CCOc1nc(N)c2c(n1)CCN(c1ccc(C(C)(C)C)cc1)C2=O [Example 6D, 4-amino-6-(4-tert-butylphenyl)-2-ethoxy-7,8-dihydropyrido[4,3-d]pyrimidin-5(6H)-one]",899 nM
5,"COC(=O)C(C)(C)c1ccc(N2CCc3nc(OC)nc(N)c3C2=O)cc1 [Example 3A, methyl 2-[4-(4-amino-2-methoxy-5-oxo-7,8-dihydropyrido[4,3-d]pyrimidin-6(5H)-yl)phenyl]-2-methylpropanoate]",13.7 nM
6,"COc1nc(N)c2c(n1)CCN(c1ccc(C(OC)C(C)(C)C)cc1)C2=O (centres unmarked) [Example 10D, 4-amino-2-methoxy-6-[4-(1-methoxy-2,2-dimethylpropyl)phenyl]-7,8-dihydropyrido[4,3-d]pyrimidin-5(6H)-one]",27.9 nM
7,"COc1nc(N)c2c(n1)CCN(c1ccc([C@H]3C[C@H](O)C3)cc1)C2=O [Example 1I, 4-amino-6-[4-(trans-3-hydroxycyclobutyl)phenyl]-2-methoxy-7,8-dihydropyrido[4,3-d]pyrimidin-5(6H)-one]",95.8 nM
8,"COc1nc(N)c2c(n1)CCN(c1ccc(S(=O)(=O)C(C)(C)C)cc1)C2=O [Example 9P, 4-amino-6-[4-(tert-butylsulfonyl)phenyl]-2-methoxy-7,8-dihydropyrido[4,3-d]pyrimidin-5(6H)-one]",784 nM
9,"COc1nc(N)c2c(n1)CCN(c1ccc(CCC(F)(F)F)cc1)C2=O [Example 9L, 4-amino-2-methoxy-6-[4-(3,3,3-trifluoropropyl)phenyl]-7,8-dihydropyrido[4,3-d]pyrimidin-5(6H)-one]",77.4 nM
10,"COc1nc(N)c2c(n1)CCN(c1ccccc1)C2=O [Example 9C, 4-amino-2-methoxy-6-phenyl-7,8-dihydropyrido[4,3-d]pyrimidin-5(6H)-one]",594 nM
